Laboratory results from the supplement of paper PMC11451515.

Tested on: P12-Ichikawa
Assay: cell viability relative to DMSO control; higher = less cytotoxic
Details: 48 h
In short: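 Viability values are per-plate percentages of DMSO wells, with background from cell-free wells. Library compounds in DMSO were pin-dosed, in an 11-point threefold series from 47 μM to 0.79 nM, onto NOMO1 or SEM (500 cells/well) or P12-Ichikawa (1000 cells/well) leukemia cells in 1536-well plates (5 μl). Those cells had been adapted for at least four passages in each medium, and CellTiter-Glo One luminescence was read after 48 h at 37°C.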

[1] = HPLM + 10% dialyzed FBS, 0.000781 µM
[2] = HPLM + 10% dialyzed FBS, 0.00234 µM
[3] = HPLM + 10% dialyzed FBS, 0.00702 µM
[4] = HPLM + 10% dialyzed FBS, 0.0211 µM
[5] = HPLM + 10% dialyzed FBS, 0.0632 µM
[6] = HPLM + 10% dialyzed FBS, 0.19 µM
[7] = HPLM + 10% dialyzed FBS, 0.569 µM
[8] = HPLM + 10% dialyzed FBS, 1.71 µM
[9] = HPLM + 10% dialyzed FBS, 5.12 µM
[10] = HPLM + 10% dialyzed FBS, 15.4 µM
[11] = HPLM + 10% dialyzed FBS, 46.1 µM
[12] = RPMI 5 mM glucose + 10% FBS, 0.000781 µM
[13] = RPMI 5 mM glucose + 10% FBS, 0.00234 µM
[14] = RPMI 5 mM glucose + 10% FBS, 0.00702 µM
[15] = RPMI 5 mM glucose + 10% FBS, 0.0211 µM
[16] = RPMI 5 mM glucose + 10% FBS, 0.0632 µM
[17] = RPMI 5 mM glucose + 10% FBS, 0.19 µM
[18] = RPMI 5 mM glucose + 10% FBS, 0.569 µM
[19] = RPMI 5 mM glucose + 10% FBS, 1.71 µM
[20] = RPMI 5 mM glucose + 10% FBS, 5.12 µM
[21] = RPMI 5 mM glucose + 10% FBS, 15.4 µM
[22] = RPMI 5 mM glucose + 10% FBS, 46.1 µM
[23] = RPMI 5 mM glucose + 10% dialyzed FBS, 0.000781 µM
[24] = RPMI 5 mM glucose + 10% dialyzed FBS, 0.00234 µM
[25] = RPMI 5 mM glucose + 10% dialyzed FBS, 0.00702 µM
[26] = RPMI 5 mM glucose + 10% dialyzed FBS, 0.0211 µM
[27] = RPMI 5 mM glucose + 10% dialyzed FBS, 0.0632 µM
[28] = RPMI 5 mM glucose + 10% dialyzed FBS, 0.19 µM
[29] = RPMI 5 mM glucose + 10% dialyzed FBS, 0.569 µM
[30] = RPMI 5 mM glucose + 10% dialyzed FBS, 1.71 µM
[31] = RPMI 5 mM glucose + 10% dialyzed FBS, 5.12 µM
[32] = RPMI 5 mM glucose + 10% dialyzed FBS, 15.4 µM
[33] = RPMI 5 mM glucose + 10% dialyzed FBS, 46.1 µM

| Compound | cell viability [1] | cell viability [2] | cell viability [3] | cell viability [4] | cell viability [5] | cell viability [6] | cell viability [7] | cell viability [8] | cell viability [9] | cell viability [10] | cell viability [11] | cell viability [12] | cell viability [13] | cell viability [14] | cell viability [15] | cell viability [16] | cell viability [17] | cell viability [18] | cell viability [19] | cell viability [20] | cell viability [21] | cell viability [22] | cell viability [23] | cell viability [24] | cell viability [25] | cell viability [26] | cell viability [27] | cell viability [28] | cell viability [29] | cell viability [30] | cell viability [31] | cell viability [32] | cell viability [33] |
| --- | --- | --- | --- | --- | --- | --- | --- | --- | --- | --- | --- | --- | --- | --- | --- | --- | --- | --- | --- | --- | --- | --- | --- | --- | --- | --- | --- | --- | --- | --- | --- | --- | --- |
| CCOc1cc2ncc(C#N)c(Nc3ccc(OCc4ccccn4)c(Cl)c3)c2cc1NC(=O)/C=C/CN(C)C | 116% | 124% | 122% | 115% | 117% | 115% | 62.5% | 6.67% | 4.65% | 4.41% | 3.56% | 111% | 125% | 120% | 118% | 120% | 121% | 121% | 11.3% | 6.84% | 5.28% | 5.4% | 119% | 130% | 121% | 122% | 119% | 118% | 122% | 13.5% | 7.04% | 5.08% | 4.99% |
| O=C(CCc1ccc(O)cc1)c1c(O)cc(O)cc1O | 94.5% | 106% | 104% | 99.5% | 103% | 111% | 110% | 116% | 112% | 103% | 110% | 89.5% | 91% | 100% | 103% | 90.2% | 101% | 106% | 104% | 105% | 107% | 91.1% | 81.6% | 92% | 93% | 96.7% | 100% | 98.7% | 103% | 94.3% | 102% | 90.4% | 99.4% |
| CC(NC(C)(C)C)C(=O)c1cccc(Cl)c1 (centres undefined) | 114% | 113% | 117% | 118% | 117% | 111% | 120% | 124% | 122% | 115% | 115% |  |  |  |  |  |  |  |  |  |  |  | 114% | 127% | 119% | 123% | 123% | 128% | 125% | 124% | 121% | 118% | 108% |
| NC(=O)[C@H]1CCS[C@@H]2C[C@]3(CCCN3C(=O)Cc3ccc(NC(=O)COc4ccc(Cl)cc4Cl)cc3)C(=O)N12 | 113% | 115% | 120% | 110% | 114% | 101% | 73.1% | 16.5% | 18.6% | 18.5% | 12.8% | 110% | 109% | 120% | 111% | 128% | 110% | 106% | 40.3% | 16.5% | 22.9% | 17.5% | 124% | 120% | 130% | 134% | 127% | 125% | 116% | 70.3% | 28.7% | 39.2% | 23.8% |
| CN(C)c1ccc2nc3ccc(N(C)C)cc3[s+]c2c1 | 99.5% | 105% | 109% | 105% | 109% | 113% | 111% | 102% | 59.7% | 10.9% | 3.04% | 95.6% | 106% | 96.7% | 109% | 110% | 124% | 115% | 98.5% | 60.3% | 8% | 2.12% | 91.4% | 106% | 98.2% | 96.4% | 104% | 116% | 114% | 94.9% | 71.3% | 12.8% | 2.16% |
| [O-]C(=O)C/1=N/C(=O)NC(=O)N1 | 99% | 97% | 98.3% | 93.3% | 102% | 98% | 90.1% | 91.2% | 81.8% | 80.9% | 83.4% | 92.2% | 97.2% | 90% | 96.6% | 90.2% | 92.3% | 87.6% | 91.8% | 82.6% | 82.1% | 80.2% | 90.6% | 89.4% | 88.4% | 95.8% | 92.8% | 81.8% | 85.3% | 93.2% | 88% | 82.4% | 76.5% |
| CC[N+](CC)(CC)CCOc1cccc(OCC[N+](CC)(CC)CC)c1OCC[N+](CC)(CC)CC | 116% | 109% | 101% | 107% | 127% | 120% | 98.9% | 91.6% | 100% | 107% | 97% | 124% | 115% | 112% | 124% | 114% | 115% | 107% | 108% | 111% | 110% | 103% | 108% | 101% | 108% | 109% | 120% | 109% | 100% | 104% | 103% | 95.2% | 100% |
| Cc1cc(O)c2c(c1)C(=O)c1cccc(O)c1C2=O | 112% | 119% | 119% | 127% | 121% | 137% | 128% | 133% | 122% | 113% | 87.1% |  |  |  |  |  |  |  |  |  |  |  |  |  |  |  |  |  |  |  |  |  |  |
| O=C(NCCCCN1CCOCC1)c1cc2ccccc2o1 | 119% | 122% | 119% | 115% | 114% | 120% | 113% | 117% | 112% | 112% | 102% | 115% | 122% | 120% | 118% | 106% | 116% | 107% | 105% | 101% | 95.5% | 101% | 123% | 128% | 123% | 131% | 118% | 120% | 115% | 108% | 116% | 110% | 108% |
